Reference: ChEMBL document CHEMBL1140420, “Synthesis of tricyclic 1,3-oxazin-4-ones and kinetic analysis of cholesterol esterase and acetylcholinesterase inhibition” (J Med Chem, 2005)

Key:
[1] = biological target: T1, Bile salt-activated lipase (Bos taurus, UniProt P30122)
T1 sequence (P30122 whole entry): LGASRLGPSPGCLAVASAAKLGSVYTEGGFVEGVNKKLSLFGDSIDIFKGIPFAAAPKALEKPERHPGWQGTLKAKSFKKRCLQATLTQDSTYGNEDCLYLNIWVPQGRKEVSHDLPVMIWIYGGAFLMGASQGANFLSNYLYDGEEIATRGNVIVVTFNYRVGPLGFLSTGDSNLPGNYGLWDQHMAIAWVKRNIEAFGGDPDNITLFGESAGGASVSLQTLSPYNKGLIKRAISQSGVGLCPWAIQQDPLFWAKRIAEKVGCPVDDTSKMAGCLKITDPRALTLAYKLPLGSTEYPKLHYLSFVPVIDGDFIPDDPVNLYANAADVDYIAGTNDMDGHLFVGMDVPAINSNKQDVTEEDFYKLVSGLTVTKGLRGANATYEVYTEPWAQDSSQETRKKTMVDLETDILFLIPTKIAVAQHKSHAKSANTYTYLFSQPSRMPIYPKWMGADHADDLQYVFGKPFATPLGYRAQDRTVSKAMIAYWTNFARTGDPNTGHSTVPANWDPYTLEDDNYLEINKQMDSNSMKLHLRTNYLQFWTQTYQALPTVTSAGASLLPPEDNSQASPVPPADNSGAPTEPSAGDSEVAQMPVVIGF
Description: Inhibitory activity against bovine pancreatic CEase in presence of pNPB chromogenic substrate by spectrophotometry

Acetylcholinesterase = Acetylcholinesterase (Electrophorus electricus, UniProt O42275)
Chain of Acetylcholinesterase (O42275 whole entry): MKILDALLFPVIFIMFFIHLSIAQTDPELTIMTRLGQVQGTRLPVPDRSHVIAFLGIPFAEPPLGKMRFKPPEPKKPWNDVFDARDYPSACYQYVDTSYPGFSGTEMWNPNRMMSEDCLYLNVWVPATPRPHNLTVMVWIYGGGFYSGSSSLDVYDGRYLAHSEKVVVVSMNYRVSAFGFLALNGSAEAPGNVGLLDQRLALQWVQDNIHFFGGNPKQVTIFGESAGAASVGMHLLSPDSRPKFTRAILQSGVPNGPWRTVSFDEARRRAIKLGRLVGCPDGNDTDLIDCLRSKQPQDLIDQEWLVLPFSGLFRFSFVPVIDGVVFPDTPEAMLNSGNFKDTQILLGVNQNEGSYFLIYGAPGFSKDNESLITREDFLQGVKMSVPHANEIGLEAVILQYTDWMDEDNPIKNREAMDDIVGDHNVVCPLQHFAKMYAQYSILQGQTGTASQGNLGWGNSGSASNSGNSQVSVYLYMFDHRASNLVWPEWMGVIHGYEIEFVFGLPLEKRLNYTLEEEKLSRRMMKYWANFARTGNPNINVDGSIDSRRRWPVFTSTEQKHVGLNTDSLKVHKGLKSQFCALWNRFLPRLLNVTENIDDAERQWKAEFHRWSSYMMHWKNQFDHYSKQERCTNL
Description: Inhibitory activity AChE from Electrophorus electricus using ATCh substrate and DTNB by spectrophotometry

| Compound | Ki [1] | IC50 (Acetylcholinesterase) | Ki (Acetylcholinesterase) |
| --- | --- | --- | --- |
| O=c1oc(N2CCOCC2)nc2sc3c(c12)CCN(Cc1ccccc1)C3 | > 50 µM | 0.77 µM |  |
| CCN1CCc2c(sc3nc(N(C)C)oc(=O)c23)C1 | > 50 µM | 10.5 µM |  |
| CN(C)c1nc2sc3c(c2c(=O)o1)CCSC3 | 5.76 µM | > 50 µM |  |
| CC(C)CN1CCc2c(sc3nc(N(C)C)oc(=O)c23)C1 | > 50 µM | 0.36 µM | 0.66 µM |
| CN(C)c1nc2sc3c(c2c(=O)o1)CCN(Cc1ccccc1)C3 | > 50 µM | 0.89 µM | 1.7 µM |
| O=c1oc(N2CCN(Cc3ccccc3)CC2)nc2sc3c(c12)CCN(Cc1ccccc1)C3 | > 50 µM | 1.32 µM |  |
| CN1CCc2c(sc3nc(N(C)C)oc(=O)c23)C1 | > 50 µM | 38.9 µM |  |
| Nc1nc2sc3c(c2c(=O)s1)CCN(Cc1ccccc1)C3 | > 50 µM | 1.2 µM |  |
| CC(C)Nc1nc2sc3c(c2c(=O)o1)CCN(Cc1ccccc1)C3 | > 50 µM | 0.74 µM |  |
| CN(C)c1nc2sc3c(c2c(=O)o1)CCN(C(=O)c1ccccc1)C3 | > 50 µM | 35.6 µM |  |
| O=c1oc(NC2CCCCC2)nc2sc3c(c12)CCN(Cc1ccccc1)C3 | > 50 µM |  |  |
| CC(C)Nc1nc2sc3c(c2c(=O)s1)CCN(Cc1ccccc1)C3 | > 50 µM | 0.58 µM |  |
| CCN(CC)c1nc2sc3c(c2c(=O)o1)CCC3 | 0.58 µM | > 50 µM |  |
| CCN(CC)c1nc2sc3c(c2c(=O)o1)C(C)CCC3 (stereo not drawn) | 1.64 µM | > 50 µM |  |
| CCN(CC)c1nc2scc(C)c2c(=O)o1 | 15 µM | > 50 µM |  |
| CCN(CC)c1nc2sc3ccccc3c2c(=O)o1 | 7.5 µM | > 50 µM |  |
| CCN(CC)c1nc2sc(C(N)=O)c(C)c2c(=O)o1 | > 50 µM | > 50 µM |  |
| O=c1sc(NC2CCCCC2)nc2sc3c(c12)CCN(Cc1ccccc1)C3 | > 50 µM | 2.82 µM |  |

| Compound | Ki [1] | IC50 (Acetylcholinesterase) | Ki (Acetylcholinesterase) |
| --- | --- | --- | --- |
| O=c1sc(Nc2ccccc2)nc2sc3c(c12)CCN(Cc1ccccc1)C3 | > 50 µM | 1.03 µM |  |
| O=C(Nc1nc2sc3c(c2c(=O)o1)CCN(Cc1ccccc1)C3)c1ccccc1 | > 50 µM | 2.86 µM |  |
| O=C(Nc1nc2sc3c(c2c(=O)s1)CCN(Cc1ccccc1)C3)c1ccccc1 | > 50 µM | 5.2 µM |  |
| COc1ccc(CN(C)c2nc3sc4c(c3c(=O)o2)CCN(Cc2ccccc2)C4)cc1OC | > 50 µM | 0.33 µM |  |
| CN(C)c1nc2sc3c(c2c(=O)o1)CCOC3 | > 50 µM | > 50 µM |  |
| CN(C)c1nc2sc3c(c2c(=O)o1)CCC3 | 0.63 µM | > 50 µM |  |
| CCN(CC)c1nc2sc3c(c2c(=O)o1)CCCC3 | 1.86 µM | > 50 µM |  |
| O=c1oc(N2CCOCC2)nc2sc3c(c12)CCCC3 | 5.7 µM | > 50 µM |  |
| Nc1nc2sc3c(c2c(=O)o1)CCN(Cc1ccccc1)C3 | > 50 µM | 5.9 µM |  |
| CCN(CC)c1nc2scc(C(C)C)c2c(=O)o1 | 6.4 µM | > 50 µM |  |
| O=c1oc(Nc2ccccc2)nc2sc3c(c12)CCN(Cc1ccccc1)C3 | > 50 µM | 0.94 µM |  |
| CCN(CC)c1nc2sc3c(c2c(=O)o1)CCCCC3 | 6 µM | > 50 µM |  |
| CN(Cc1ccccc1)c1nc2sc3c(c2c(=O)o1)CCN(Cc1ccccc1)C3 | > 50 µM | 0.84 µM |  |
| CCN(CC)c1nc2sc(C)c(C)c2c(=O)o1 | 4.3 µM | > 50 µM |  |
| CC(C)Nc1nc2sc3c(c2c(=O)o1)CCCC3 | > 50 µM | > 50 µM |  |
| CN(c1nc2sc3c(c2c(=O)o1)CCCC3)C1CCCCC1 | 18 µM | > 50 µM |  |
| CCN(CC)c1nc2sc3c(c2c(=O)o1)CCN(Cc1ccccc1)C3 | > 50 µM | 2.08 µM |  |
| CN(C)c1nc2sc3c(c2c(=O)o1)CCCC3 | 2.15 µM | > 50 µM |  |
